The results in this text go back to ChEMBL document CHEMBL6078618, “Exploring quinoxaline derivatives: An overview of a new approach to combat antimicrobial resistance” (Eur J Med Chem, 2024).

Molecules are shown by their SMILES. In brackets after ≈: the same amount, converted by molar mass.

In assay [1] the test system is Rhizoctonia solani. Briefly: Antifungal activity against Rhizoctonia solani. The assay is classed as functional, organism-based.
The subject of assay [2] is Escherichia coli. Briefly: Antibacterial activity against Escherichia coli ATCC 25922 assessed as reduction in bacterial growth by broth microdilution method. The assay is classed as functional. (Broth dilution looks for growth in wells or tubes with falling amounts of substance.)
Assay [3] concerns Micrococcus luteus. Kind of assay: Antibacterial activity against Micrococcus luteus assessed as reduction in microbial growth. The assay is classed as functional.
The subject of assay [4] is Pseudomonas aeruginosa. Kind of assay: Antibacterial activity against Pseudomonas aeruginosa ATCC 27853 assessed as inhibition of bacterial growth. The assay is classed as functional.
In assay [5] the test system is Escherichia coli. Briefly: Antimicrobial activity against Escherichia coli NCIM 2065 assessed as zone of inhibition incubated for 24 hrs by agar diffusion method. The assay is classed as functional.
Assay [6] relates to Escherichia coli. Kind of assay: Antibacterial activity against Escherichia coli E38 assessed as reduction in bacterial growth by measuring minimum bactericidal concentration incubated for 16 to 20 hrs by serial dilution method. The assay is classed as functional. The following applies: time 16-20 hrs.
Assay [7] relates to Xanthomonas axonopodis. Kind of assay: Antimicrobial activity against Xanthomonas axonopodis. The assay is classed as functional, organism-based.
The test system of assay [8] is Bacillus pumilus. Briefly: Antimicrobial activity against Bacillus pumilus. The assay is classed as functional.
Assay [9] has as its system Staphylococcus aureus. Briefly: Antibacterial activity against Staphylococcus aureus. The assay is classed as functional.
Assay [10] relates to Staphylococcus aureus. Briefly: Antibacterial activity against Staphylococcus aureus ATCC 25923 assessed as reduction in bacterial growth incubated for 24 hrs by serial dilution method. The assay is classed as functional.
Assay [11] concerns Candida albicans. Kind of assay: Antifungal activity against Candida albicans assessed as reduction in microbial growth. The assay is classed as functional.
The subject of assay [12] is Fusarium oxysporum. Briefly: Antifungal activity against Fusarium oxysporum. The assay is classed as functional.
The subject of assay [13] is MCF7. Briefly: Anticancer activity against human MCF7 cells assessed as reduction in cell growth. The assay is classed as functional, cell-based.
Assay [14] concerns Candida albicans. Briefly: Antifungal activity against Candida albicans. The assay is classed as functional.
For assay [15], the system named is Nakaseomyces glabratus. Kind of assay: Antifungal activity against Candida glabrata. The assay is classed as functional.
Assay [16] relates to Candida tropicalis. Kind of assay: Antifungal activity against Candida tropicalis. The assay is classed as functional.
The subject of assay [17] is Pichia kudriavzevii. Kind of assay: Antifungal activity against Candida krusei. The assay is classed as functional.

Consider `N#Cc1ccc(COC(=O)c2ccc(Oc3cnc4ccccc4n3)cc2)cc1`, for which the EC50 (as a rule, the midpoint of the concentration-response curve) in assay [1] was found to be 8.54 µg/mL (≈ 22.4 µM). `O=C(O)c1cccc(Sc2nc3ccccc3nc2Sc2cccc(C(=O)O)c2)c1`: the MIC – broadly, the smallest concentration in the dilution series that meets the test's criterion for growth inhibition – in [2] was 2.5 µg/mL (≈ 5.75 µM).

For `CCCNc1nc2ccccc2nc1C(=O)c1cnc(-c2ccccc2)o1`, the MIC in assay [3] was found to be 62.5 µg/mL; in assay [4] it was 31.2 µg/mL (≈ 87.2 µM). The like results for `CNc1nc2ccccc2nc1C(=O)c1cnc(-c2ccccc2)o1` were, in that order, 62.5 µg/mL and 31.2 µg/mL (≈ 94.6 µM). Regarding `COc1ccc(Sc2nc3ccccc3nc2Cl)cc1`, the “inhibition zone (IZ)” value in assay [5] came to 13 mm. Besides, the MBC (commonly the lowest tested concentration that kills the bacteria rather than only halting them) in assay [6] came to 2.5 µg/mL (≈ 8.26 µM). Regarding `O=C(/C=C/c1ccccn1)c1ccc(Oc2cnc3ccccc3n2)cc1`, the midpoint of the response in assay [7], the EC50, lay at 62.3 µM. `COc1ccc(Sc2nc3ccccc3nc2Sc2ccc(OC)cc2)cc1`: the MIC in assay [2] was 2.5 µg/mL (≈ 6.15 µM); in assay [8], 5 µg/mL (≈ 12.3 µM). Consider `N#Cc1ccc(/C=C/c2nc3ccccc3nc2Nc2ccc(C(=O)O)cc2)cc1`, for which, in assay [9], the MIC worked out at 13.3 µM (≈ 5.22 µg/mL). As for `CCCNc1nc2ccccc2nc1C(=O)c1cnc(-c2ccc(Cl)cc2)o1`, the MIC in assay [3] came to 62.5 µg/mL; in [4], 31.2 µg/mL (≈ 79.5 µM). In [7], this compound registered an EC50 of 42.4 µM. Turning to `Nc1ccc(Sc2nc3ccccc3nc2Sc2ccc(N)cc2)cc1`, the MIC in assay [2] and in [8] was 2.5 µg/mL (≈ 6.64 µM) in each case.

On to `NNC1=NNc2nc3ccc(S(=O)(=O)N4CCOCC4)cc3nc2S1`, for which the figures for the MIC in [10], in assay [11] and in [12] were 1.92 µg/mL (≈ 5.03 µM), 3.9 µg/mL and 15.6 µg/mL (≈ 40.9 µM), respectively.

Regarding `Nc1ccc(Sc2nc3ccccc3nc2Cl)cc1`, in assay [5], the “inhibition zone (IZ)” value is reported as 15 mm. In addition, the MBC in [6] is 2.5 µg/mL (≈ 8.69 µM).

Regarding `CCNc1nc2ccccc2nc1C(=O)c1cnc(-c2ccccc2)o1`, the MIC in assay [3] was 62.5 µg/mL; in [4], 31.2 µg/mL (≈ 90.7 µM). Turning to `Cc1nnc2n1Nc1nc3ccc(S(=O)(=O)N4CCOCC4)cc3nc1S2`, the MIC in assay [10] worked out at 1.92 µg/mL (≈ 4.74 µM). The compound `O=C(OCc1ccc(Cl)cc1Cl)c1ccc(Oc2cnc3cc(Cl)ccc3n2)cc1` had an EC50 in [1] of 35.2 µg/mL (≈ 76.5 µM). Regarding `O=C(c1cnc(-c2ccc(Cl)cc2)o1)c1nc2ccccc2nc1N1CCOCC1`, the MIC stood at 62.5 µg/mL in [3] and 31.2 µg/mL (≈ 74.3 µM) in [4]. Further, the EC50 in assay [7] was 44.3 µM. In the case of `O=C(O)c1ccc(Nc2nc3ccccc3nc2/C=C/c2ccc(O)cc2)cc1`, in assay [13], the IC50 (as a rule, the concentration at which inhibition is half-maximal) is 7 µM. Consider `CO/C=C(/C(=O)OC)c1ccccc1Oc1cc(Oc2ccccc2C#N)ncn1` [AZOXYSTROBIN], for which the EC50 in assay [1] stood at 26.2 µg/mL (≈ 64.9 µM).

`S=c1[nH]nc(NCNc2n[nH]c(=S)s2)s1` showed a half-maximal effective concentration (EC50) in assay [1] of 295 µg/mL (≈ 1060 µM).

For the compound `O=[N+]([O-])c1ccc(Sc2nc3ccccc3nc2Sc2ccc([N+](=O)[O-])cc2)cc1`, in [2], the MIC turned out to be 2.5 µg/mL (≈ 5.73 µM).

As to `N#Cc1ccc(COC(=O)c2ccc(Oc3cnc4cc(Cl)ccc4n3)cc2)cc1`, the midpoint of the response in assay [1], the EC50, lay at 12 µg/mL (≈ 28.9 µM). On to `O=S(=O)(c1ccc2nc(Cl)c(Cl)nc2c1)N1CCOCC1`, for which the MIC in [10] came out at 1.92 µg/mL (≈ 5.51 µM). On to `Cc1cc(O)n(C2=NNc3nc4ccc(S(=O)(=O)N5CCOCC5)cc4nc3S2)n1`, for which the MIC in assay [10] came to 1.92 µg/mL (≈ 4.29 µM); in [11], 3.9 µg/mL; in assay [12], 15.6 µg/mL (≈ 34.9 µM). For the compound `Cc1cc(C)cc(Sc2nc3ccccc3nc2Cl)c1`, the “inhibition zone (IZ)” value in assay [5] was 11 mm. Further, the MBC in assay [6] was 2.5 µg/mL (≈ 8.31 µM). Take `OC(Cn1cncn1)(Cn1cncn1)c1ccc(F)cc1F` [FLUCONAZOLE]: the MIC90 (commonly the lowest concentration that inhibits either 90% of growth or 90% of the strains tested, depending on the study) in assay [14] is 0.5 µg/mL (≈ 1.63 µM); in [15], 2 µg/mL (≈ 6.53 µM); in [16] it was 4 µg/mL (≈ 13.1 µM); in assay [17], 16 µg/mL (≈ 52.2 µM). The like results for `CCc1nc2ccc(-c3nnc(SCC(=O)c4ccc([N+](=O)[O-])cc4)n3CC)cc2nc1CC` were, in that order, 4 µg/mL (≈ 8.39 µM), 2 µg/mL (≈ 4.2 µM), 4 µg/mL (≈ 8.39 µM) and 2 µg/mL (≈ 4.2 µM). For the compound `COc1ccc(OC)c(/C=C/c2nc3ccccc3nc2Nc2ccc(C(=O)O)cc2)c1`, in assay [13], the IC50 was determined as 10 µM. As for `O=C(c1cnc(-c2ccc(Cl)cc2)o1)c1nc2ccccc2nc1NCc1ccccc1`, the MIC in [3] stood at 62.5 µg/mL; in assay [4] it was 31.2 µg/mL (≈ 70.9 µM). Moreover, a half-maximal response in [7] (EC50) required 6.72 µM. For the compound `C/C(=N/Nc1nc2nc3cc(S(=O)(=O)N4CCOCC4)ccc3nc2s1)c1ccc(Br)cc1`, the MIC in assay [10] was 1.92 µg/mL (≈ 3.51 µM).
